One test concerns the target T1, succinate dehydrogenase (Botrytis cinerea, UniProt A0A384J5E4+A0A384J8V8+A0A384JHJ5).
T1 construct: succinate-DCPIP reductase assay with KCN
In words: Enzyme inhibition: succinate dehydrogenase activity in Botrytis cinerea mitochondria (DCPIP reduction). Conditions: concentration required to inhibit the rate of DCPIP reduction by 50%; Botrytis cinerea isolate Nick mitochondria; read-out: I50 (μM conc.). In kind it is biochemical. As for the experimental part: Mitochondria were isolated by a method adapted from G.A. White [Biochem. Biophys. Res. Commun. 44: 1212, 1971]. Twenty to thirty grams of Botrytis cinerea isolate Nick were resuspended in 250 mL 0.25M sucrose, 5mM Na4 EDTA, pH 7.0 (+) 0.15% (w/v) bovine serum albumin (BSA) and placed in a Bead Beater chamber (Biospec Products, Bartlesville, Ok.). Zirconium oxide beads (0.5mm) were added to finish filling the chamber. Four 30 second beats separated by 2 minute temperature equilibration periods in the cold were used to break the mycelia. A crude mitochondrial preparation was harvested from the homogenate by differential centrifugation at 4° C. and resuspended in BSA-free sucrose/EDTA media and used for SDH assays.
The succinate dehydrogenase activity was measured at 600 nm in 50 mM potassium phosphate, pH 7.2, 1 mM KCN, 45 μM 2,6-dichlorophenolindophenol (DCPIP) and 17 mM disodium succinate (final volume, 1 mL) with a Perkin-Elmer Lambda 7 ultraviolet-visible spectrophotometer. The test compounds were added as acetone solutions (final concentration of acetone, 1% (v/v)). The mitochondrial preparatons were used to initiate the reaction. All rates were corrected for endogenous activities minus succinate. Semilog plots of percentage inhibition versus test compound concentration were used to determine inhibition expressed as I50 (μM) which is the concentration required to inhibit the rate of DCPIP reduction by 50%. The commercial fungicide carboxin was used as standard throughout.

In test [1] the test system is Botrytis cinerea. In words: Vine grey mold (grape berries). Type of test: in vivo. Conditions: average of six berries, 7-10 days; for pest or weed control at 50 ppm: grape berries treated with 50 ppm, read-out: % DISEASE CONTROL 50 ppm; for pest or weed control at 200 ppm: grape berries treated with 200 ppm, read-out: % DISEASE CONTROL 200 ppm. Here is the method: Grape berries, which have been washed and surfaced sterilized in 70% ethanol for one minute, are, except for the negative controls, treated with 0.2 mL of a 2:3 acetone/water formulation (containing 0.05% Tween® 20) of 200 or 50 ppm of the test compounds and placed one per well in 12-well plates. Six berries per treatment level are used. Twenty-four hours later each berry is inoculated with Botrytis cinerea conidia, 0.2 mL of 10^6 spores/mL suspension. The plates are incubated at 20° C. with a 12 hours photoperiod for 7-10 days and the percent surface area infected with the disease is determined for each replicate using the values of 0, 1, 2, 5, 7, 10, 15, 20, 25, 30, 35, 40, 45, 50, 55, 60, 65, 70, 75, 80, 85, 90, 95, and 100%. Treatment means are calculated and percent disease control is determined by the formula [(control mean - treatment mean)/control means]×100.
Some of the compounds have been tested more than once and the results shown are the average of the number of tests reported.

The test system of test [2] is Botrytis cinerea. In words: Eggplant grey mold. Type of test: in vivo. The arrangement: scale not given here. Conditions: inoculated 24 h later, rated after 3-4 days; for Disease Control Rating at 500 ppm: eggplant sprayed with 500 ppm; for Disease Control Rating at 20 ppm: eggplant sprayed with 20 ppm; for Disease Control Rating at 100 ppm: eggplant sprayed with 100 ppm. Here is the method:
Eggplant seed are planted in 2.25" square pots, six per pot, and maintained in growth chambers set at 23° C., 80% humidity, and 12 h photoperiod. When the plants are at the cotyledon stage (14-18 days afterplanting), the plants are sprayed with 1.5 mL/pot of 500, 100 or 20 ppm 2:3 acetone:water (with 0.5% Tween® 20) formulations of the test compounds.
Twenty-four hours later the plants are inoculated with Botrytis cinerea, approximately 0.5 mL/pot of a 4×10^6 spore/mL suspension. The plantes are incubated at 23° C. and 100% humidity for 3-4 days, at which time disease control ratings are made based on presence and severity of Botrytis lesions.

The subject of another test is Rhizoctonia solani. In words: Rice sheath blight. Type of test: in vivo. Set-up: scale not given here. The note with it: inoculated two days later, rated after 7 days, average of five plants; for Disease Control Rating at 0.02 mg/mL: foliage and soil sprayed with 0.02 mg/mL; for Disease Control Rating at 0.1 mg/mL: foliage and soil sprayed with 0.1 mg/mL; for Disease Control Rating at 0.5 mg/mL: foliage and soil sprayed with 0.5 mg/mL. As for the experimental part:
Rice plants, 11 to 15 days old, are grown in 7.65 cm^2 pots. Each plant in the treatment groups is treated by spraying both the foliage and the soil surface, each with 2 mL of a water/acetone/Tween®20 formulation containing 0.5, 0.1, or 0.02 mg/mL of Compound A. The pots are placed in flood trays which are filled with water to just below the soil line. Two days later, approximately two grams of Rhizoctonia solani inoculum, cultured on rice grain for four to eight weeks, is applied to the base of the rice plants in each pot. After 7 days in a 25° C. high humidity growth chamber, each plant is evaluated for the level of disease contro as compared to untreated controls by the following scale and the average of five plants per treatment level is calculated.

We go through eleven molecules from US5223526A, “Pyrazole carboxanilide fungicides and use” (Monsanto Company, priority 1992, dated 1993).

T1 sequence (A0A384J5E4 1-300): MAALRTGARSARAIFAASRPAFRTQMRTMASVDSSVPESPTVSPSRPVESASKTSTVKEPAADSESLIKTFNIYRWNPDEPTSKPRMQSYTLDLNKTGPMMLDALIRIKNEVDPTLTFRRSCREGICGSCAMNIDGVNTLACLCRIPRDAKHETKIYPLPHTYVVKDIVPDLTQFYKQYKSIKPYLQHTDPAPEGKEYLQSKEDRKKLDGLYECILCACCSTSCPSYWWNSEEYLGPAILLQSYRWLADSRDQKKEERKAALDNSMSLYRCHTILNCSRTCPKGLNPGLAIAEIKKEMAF
T1 sequence (A0A384J8V8 1-189): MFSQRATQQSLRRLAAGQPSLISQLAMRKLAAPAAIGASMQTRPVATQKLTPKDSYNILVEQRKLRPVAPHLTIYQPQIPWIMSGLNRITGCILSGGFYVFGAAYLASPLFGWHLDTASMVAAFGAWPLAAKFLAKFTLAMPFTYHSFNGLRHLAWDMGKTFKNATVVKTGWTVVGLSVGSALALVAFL
T1 sequence (A0A384JHJ5 1-192): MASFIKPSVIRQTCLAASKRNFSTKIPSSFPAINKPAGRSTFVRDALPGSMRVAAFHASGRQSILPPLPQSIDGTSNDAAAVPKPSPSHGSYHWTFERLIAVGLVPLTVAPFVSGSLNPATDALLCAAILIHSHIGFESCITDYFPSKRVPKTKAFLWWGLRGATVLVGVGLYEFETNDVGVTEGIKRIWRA
T1 sequence (A0A384K456 1-647 partner): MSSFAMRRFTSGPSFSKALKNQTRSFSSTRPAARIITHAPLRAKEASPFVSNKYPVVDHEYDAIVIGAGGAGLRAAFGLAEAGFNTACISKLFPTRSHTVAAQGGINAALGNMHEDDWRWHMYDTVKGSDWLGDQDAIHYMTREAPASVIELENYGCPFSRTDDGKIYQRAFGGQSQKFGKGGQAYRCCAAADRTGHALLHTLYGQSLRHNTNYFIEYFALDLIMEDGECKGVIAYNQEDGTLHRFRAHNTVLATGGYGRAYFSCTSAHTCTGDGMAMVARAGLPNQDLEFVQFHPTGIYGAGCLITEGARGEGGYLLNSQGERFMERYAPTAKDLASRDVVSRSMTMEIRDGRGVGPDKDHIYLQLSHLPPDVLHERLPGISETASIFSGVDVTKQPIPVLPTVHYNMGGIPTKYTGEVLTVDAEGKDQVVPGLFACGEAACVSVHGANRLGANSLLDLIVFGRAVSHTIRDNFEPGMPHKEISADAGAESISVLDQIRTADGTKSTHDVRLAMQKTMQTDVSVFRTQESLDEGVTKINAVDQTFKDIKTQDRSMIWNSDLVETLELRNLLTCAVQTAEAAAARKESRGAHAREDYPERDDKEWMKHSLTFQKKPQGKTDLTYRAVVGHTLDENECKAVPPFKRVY

Consider `Cn1cc(C(=O)Nc2ccccc2O[C@@H]2C[C@H]3CC[C@@H]2C3)c(C(F)(F)F)n1` (relative stereo) [Example 81], for which the IC50 on succinate dehydrogenase is 0.38 µM. In the test on Botrytis cinerea [1], the pest or weed control at 50 ppm turned out to be 0% and the pest or weed control at 200 ppm amounted to 7%. Further, in the test with Botrytis cinerea [2], the “Disease Control Rating at 500 ppm” value was 0. Besides, in the test with Rhizoctonia solani, the “Disease Control Rating at 0.02 mg/mL” value turned out to be 3, the “Disease Control Rating at 0.1 mg/mL” value came out at 3 and the “Disease Control Rating at 0.5 mg/mL” value is reported as 3.

Regarding `Cn1cc(C(=O)Nc2ccccc2O[C@H]2C[C@H]3CC[C@@H]2C3)c(C(F)F)n1` (relative stereo) [Example 82, 1H-pyrazole-4-carboxamide, N-[2-(bicyclo[2.2.1]hept-2-yloxy)-phenyl]-3-(difluoromethyl)-1-methyl-, endo-], the IC50 on succinate dehydrogenase came to 0.065 µM. For the same molecule, in the test with Botrytis cinerea [1], the pest or weed control at 50 ppm is 0% and the pest or weed control at 200 ppm amounted to 0%. Moreover, in the test with Botrytis cinerea [2], the “Disease Control Rating at 500 ppm” value came out at 0. In addition, in the test on Rhizoctonia solani, the “Disease Control Rating at 0.02 mg/mL” value is listed as 3, the “Disease Control Rating at 0.1 mg/mL” value was found to be 3 and the “Disease Control Rating at 0.5 mg/mL” value is 3.

For `Cn1nc(C(F)(F)F)c(C(=O)Nc2ccccc2[C@@H]2C[C@H]3CC[C@@H]2C3)c1F` (relative stereo) [Example 85, 1H-pyrazole-4-Carboxamide, N-(2-bicyclo[2.2.1]hept-2-ylphenyl)-5-fluoro-1-methyl-3-(trifluoromethyl)-, exo-], the IC50 on succinate dehydrogenase was found to be 0.01 µM. In addition, in the test with Botrytis cinerea [1], the pest or weed control at 50 ppm is 28% and the pest or weed control at 200 ppm came out at 99%. For the same molecule, in the test with Botrytis cinerea [2], the “Disease Control Rating at 20 ppm” value is 0, the “Disease Control Rating at 100 ppm” value is recorded as 1 and the “Disease Control Rating at 500 ppm” value was found to be 2. In the test with Rhizoctonia solani, the “Disease Control Rating at 0.02 mg/mL” value came to 1, the “Disease Control Rating at 0.1 mg/mL” value is 3 and the “Disease Control Rating at 0.5 mg/mL” value worked out at 3.

For the molecule `Cn1nc(C(F)(F)F)c(C(=O)Nc2ccccc2[C@@H]2C[C@H]3CC[C@@H]2C3)c1Cl` (relative stereo) [Example 88, 1H-pyrazole-4-carboxamide, N-(2-bicyclo[2.2.1]hept-2-ylphenyl)-5-chloro-1-methyl-3-(trifluoromethyl)-, exo-], at succinate dehydrogenase, the IC50 was 0.035 µM. In addition, in the test with Botrytis cinerea [1], the pest or weed control at 50 ppm came out at 0% and the pest or weed control at 200 ppm amounted to 0%. Besides, the “Disease Control Rating at 500 ppm” value in the test on Botrytis cinerea [2] amounted to 0. Further, in the test with Rhizoctonia solani, the “Disease Control Rating at 0.5 mg/mL” value came to 0.

Take `Cn1cc(C(=O)Nc2ccccc2[C@@H]2C[C@H]3CC[C@@H]2C3)c(C(F)(F)Cl)n1` (relative stereo) [Example 91, 1H-pyrazole-4-carboxamide, N-[2-bicyclo[2.2.1]hept-2-ylphenyl]-3-(chlorodifluoromethyl)-1-methyl-, exo-]: the IC50 on succinate dehydrogenase was 0.078 µM. Further, in the test with Botrytis cinerea [1], the pest or weed control at 50 ppm came out at 0% and the pest or weed control at 200 ppm turned out to be 14%. Moreover, the “Disease Control Rating at 500 ppm” value in the test with Botrytis cinerea [2] came out at 0. The “Disease Control Rating at 0.5 mg/mL” value with Rhizoctonia solani was determined as 0.

Consider `Cc1c(C(=O)Nc2ccccc2[C@@H]2C[C@H]3CC[C@@H]2C3)c(C(F)(F)F)nn1C` (relative stereo) [Example 100, 1H-pyrazole-4-carboxamide, N-(2-bicyclo[2.2.1]hept-2-ylphenyl)-1,5-dimethyl-3-(trifluoromethyl)-, exo-], for which the IC50 on succinate dehydrogenase was determined as 0.19 µM. For the same molecule, in the test on Botrytis cinerea [1], the pest or weed control at 50 ppm is 0% and the pest or weed control at 200 ppm came out at 22%. In addition, the “Disease Control Rating at 500 ppm” value in the test on Botrytis cinerea [2] stood at 0. In the test with Rhizoctonia solani, the “Disease Control Rating at 0.02 mg/mL” value came out at 0, the “Disease Control Rating at 0.1 mg/mL” value came to 1 and the “Disease Control Rating at 0.5 mg/mL” value is reported as 2.

`Cn1cc(C(=S)Nc2ccccc2[C@@H]2C[C@H]3CC[C@@H]2C3)c(C(F)F)n1` (relative stereo) [Example 102, 1H-pyrazole-4-carbothioamide, N-(2-bicyclo[2.2.1]hept-2-ylphenyl)-3-(difluoromethyl)-1-methyl-, exo-]: at succinate dehydrogenase, the IC50 is 16 µM. Also, in the test on Botrytis cinerea [1], the pest or weed control at 50 ppm was determined as 88% and the pest or weed control at 200 ppm is 83%. Besides, the “Disease Control Rating at 500 ppm” value in the test on Botrytis cinerea [2] was 1. Also, in the test with Rhizoctonia solani, the “Disease Control Rating at 0.02 mg/mL” value worked out at 3, the “Disease Control Rating at 0.1 mg/mL” value is on record as 3 and the “Disease Control Rating at 0.5 mg/mL” value was 3.

For `Cc1c(C(=S)Nc2ccccc2[C@@H]2C[C@H]3CC[C@@H]2C3)c(Cl)nn1C` (relative stereo) [Example 103, 1H-pyrazole-4-carbothioamide, N-(2-bicyclo[2.2.1]hept-2-ylphenyl)-3-chloro-1,5-dimethyl-, exo-], the IC50 at succinate dehydrogenase worked out at 0.52 µM. In the test with Botrytis cinerea [1], the pest or weed control at 50 ppm was found to be 5% and the pest or weed control at 200 ppm was 18%. Also, the “Disease Control Rating at 500 ppm” value in the test with Botrytis cinerea [2] is 0. In the test on Rhizoctonia solani, the “Disease Control Rating at 0.5 mg/mL” value is recorded as 0.

For `Cc1nn(C)c(Cl)c1C(=O)Nc1ccccc1[C@@H]1C[C@H]2CC[C@@H]1C2` (relative stereo) [Example 106, 1H-pyrazole-4-carboxamide, N-(2-bicyclo[2.2.1]hept-2-ylphenyl)-5-chloro-1,3-dimethyl-, exo-], on succinate dehydrogenase, the IC50 was determined as 0.094 µM. For the same molecule, in the test with Botrytis cinerea [1], the pest or weed control at 50 ppm worked out at 9% and the pest or weed control at 200 ppm came out at 3%. For the same molecule, the “Disease Control Rating at 500 ppm” value in the test on Botrytis cinerea [2] is listed as 0. In addition, in the test on Rhizoctonia solani, the “Disease Control Rating at 0.02 mg/mL” value was found to be 2, the “Disease Control Rating at 0.1 mg/mL” value was 3 and the “Disease Control Rating at 0.5 mg/mL” value is given as 3.

On to `Cc1ccccc1NC(=O)c1c(C)nn(C)c1C` [Compound H, N-(2-methylphenyl)-1,3,5-(trimethyl)-4-pyrazolecarboxamide, reference compound], for which, on succinate dehydrogenase, the IC50 came out at 475 µM. In the test with Botrytis cinerea [1], the pest or weed control at 50 ppm stood at 5% and the pest or weed control at 200 ppm was determined as 9%. The “Disease Control Rating at 500 ppm” value in the test with Botrytis cinerea [2] was 0. In the test with Rhizoctonia solani, the “Disease Control Rating at 0.5 mg/mL” value was found to be 0.

Turning to `Cn1cc(C(=O)Nc2ccccc2C2CCCCC2)c(C(F)F)n1` [Example 1, 1H-pyrazole-4-carboxamide, N-(2-cyclohexylphenyl)-3-(difluoromethyl)-1-methyl-], the IC50 at succinate dehydrogenase was 0.0095 µM. Besides, in the test on Botrytis cinerea [1], the pest or weed control at 50 ppm stood at 92% and the pest or weed control at 200 ppm came out at 94%. Also, in the test with Botrytis cinerea [2], the “Disease Control Rating at 20 ppm” value is given as 3, the “Disease Control Rating at 100 ppm” value is 3 and the “Disease Control Rating at 500 ppm” value is 3. Moreover, in the test on Rhizoctonia solani, the “Disease Control Rating at 0.02 mg/mL” value stood at 2, the “Disease Control Rating at 0.1 mg/mL” value is listed as 0 and the “Disease Control Rating at 0.5 mg/mL” value worked out at 0.
